Test results published in paper PMC7912279, “Preclinical Evaluation of ^99mTc-Labeled GRPR Antagonists maSSS/SES-PEG2-RM26 for Imaging of Prostate Cancer” (Pharmaceutics, 2021).

How the values were obtained:
[1] = Biodistribution in NMRI mice for dosimetry estimation; format: in vivo; details: 40 pmol (30–500 kBq)
Procedure: Dosimetry estimation: To estimate the organs’ absorbed doses after iv injection of [^99mTc]Tc-maSSS-PEG2-RM26, NMRI mice were injected with 40 pmol (30–500 kBq) of the radiolabeled peptide and biodistribution was evaluated 0.5, 1, 3, 6, and 24 h pi. Sample collection and activity measurements were done as described above. To evaluate dosimetry in humans, uptake values in mice were upscaled using the well-established “percent kg/g method” [37] (Equation (1)):(%IA/organ)human = [(%IA/g)animal × (kg TBweight)animal × (g organ/(kg TBweight)human](1) where %IA-% injected activity.

[2] = tested on: PC-3 xenografts; experiment: Biodistribution in tumor bearing mice; format: in vivo; details: BALB/c nu/nu mice bearing PC-3 xenografts; for uptake, Blood / uptake, Bone / uptake, GI (gastrointestinal tract with content) / uptake, Intestine / uptake, Kidneys / uptake, Liver / uptake, Lung / uptake, Muscle / uptake, Pancreas / uptake, Spleen / uptake, Stomach / uptake, Tumor: 40 pmol (30 kBq), gamma counter, 4-7 mice; for Tumor-to-non-tumor ratio, Blood / Tumor-to-non-tumor ratio, Bone / Tumor-to-non-tumor ratio, Intestine / Tumor-to-non-tumor ratio, Kidneys / Tumor-to-non-tumor ratio, Liver / Tumor-to-non-tumor ratio, Lung / Tumor-to-non-tumor ratio, Muscle / Tumor-to-non-tumor ratio, Pancreas / Tumor-to-non-tumor ratio, Spleen / Tumor-to-non-tumor ratio, Stomach: 40 pmol
Procedure: Animals: All in vivo experiments were carried out on BALB/c nu/nu or NMRI mice provided by Scanbur A/S (Sollentuna, Sweden). All animal studies were approved by the Ethics Committee for Animal Research in Uppsala (Sweden), following the national legislation on the protection of laboratory animals (project identification code of approval 5/16, 26 February 2016). Prostate cancer xenografts expressing GRPR were established in BALB/c nu/nu mice by subcutaneous injection of PC-3 cell suspension in PBS (7 × 10^6 cells in 100 µL) four weeks before the experiment. Four to seven mice per data point were used in in vivo experiments, two mice per data point were used in metabolic analysis and SPECT/CT imaging experiments.
Biodistribution in tumor bearing mice: The comparison of biodistribution between the two radiolabeled peptides was evaluated in BALB/c nu/nu mice bearing PC-3 xenografts. Each mouse was injected with 40 pmol (30 kBq, mass of injected peptide was adjusted with unlabeled peptide) of either [^99mTc]Tc-maSSS-PEG2-RM26 or [^99mTc]Tc-maSES-PEG2-RM26. The mice were euthanized 3 h pi. Sample collection and activity measurements were done as described above. The biodistribution of [^99mTc]Tc-maSSS-PEG2-RM26 was further studied at 6 h pi following the same protocol. Additionally for [^99mTc]Tc-maSSS-PEG2-RM26, one group of xenograft bearing mice was injected with 40 pmol (30 kBq, mass of injected peptide was adjusted with unlabeled peptide) of labeled peptide with 5 nmol of unlabeled peptide and euthanized 3 h pi.

[3] = Metabolite analysis of urine and caecum content by radio-HPLC; format: in vivo; details: NMRI mice, 40 pmol, 3 h pi, two mice
Procedure: Metabolite Analysis: The NMRI mice were injected with 40 pmol of [^99mTc]Tc-maSSS-PEG2-RM26 (3 MBq) or [^99mTc]Tc-maSES-PEG2-RM26 (5.8 MBq). The mice were euthanized by CO2 inhalation 3 h pi, the content of the caecum and urine were collected and analyzed using HPLC as previously described. Centrifugation was performed using Centrifuge 5430 R (Eppendorf, Hamburg, Germany).

[4] = Octanol-water distribution coefficient (logD); format: physicochemical; details: determined as previously described [35]
Procedure: To test the stability, the radiolabeled peptides were incubated with 300× molar excess of cysteine or with PBS at room temperature for 1 h. The octanol-water distribution coefficient (logD) was determined as previously described.

## CC(C)C[C@H](NC(=O)C[C@H](O)[C@H](CC(C)C)NC(=O)[C@H](Cc1c[nH]cn1)NC(=O)CNC(=O)[C@@H](NC(=O)[C@H](C)NC(=O)[C@H](Cc1c[nH]c2ccccc12)NC(=O)[C@H](CCC(N)=O)NC(=O)[C@@H](Cc1ccccc1)NC(=O)COCCOCCNC(=O)[C@H](CO)NC(=O)[C@H](CO)NC(=O)[C@H](CO)NC(=O)CS)C(C)C)C(N)=O [[^99mTc]Tc-maSSS-PEG2-RM26, metal not drawn]
[1]; 0.5 h pi
  uptake, Blood: 0.7 ± 0.1 % IA/g
  uptake, Body: 4.5 ± 0.9 %IA/sample
  uptake, Bone: 0.26 ± 0.09 % IA/g
  uptake, Brain: 0.031 ± 0.008 % IA/g
  uptake, Caecum: 0.34 ± 0.09 %IA/sample
  uptake, Heart: 0.27 ± 0.10 % IA/g
  uptake, Kidneys: 2.5 ± 0.6 % IA/g
  uptake, Liver: 4 ± 1 % IA/g
  uptake, Lung: 0.7 ± 0.3 % IA/g
  uptake, Muscle: 0.13 ± 0.03 % IA/g
  uptake, Pancreas: 7 ± 2 % IA/g
  uptake, Small intestine: 10 ± 2 %IA/sample
  uptake, Spleen: 1.1 ± 0.4 % IA/g
  uptake, Stomach: 2.2 ± 0.2 %IA/sample
  uptake, Upper large intestine: 0.4 ± 0.3 %IA/sample
[1]; 1 h pi
  uptake, Body: 6 ± 1 %IA/sample
  uptake, Bone: 0.2 ± 0.1 % IA/g
  uptake, Brain: 0.04 ± 0.02 % IA/g
  uptake, Caecum: 0.9 ± 0.2 %IA/sample
  uptake, Heart: 0.23 ± 0.03 % IA/g
  uptake, Kidneys: 4 ± 1 % IA/g
  uptake, Large intestine: 0.6 ± 0.1 %IA/sample
  uptake, Liver: 6 ± 1 % IA/g
  uptake, Lung: 0.9 ± 0.4 % IA/g
  uptake, Pancreas: 13 ± 6 % IA/g
  uptake, Small intestine: 44 ± 10 %IA/sample
  uptake, Spleen: 2.4 ± 1.6 % IA/g
  uptake, Stomach: 6 ± 2 %IA/sample
[1]; 3 h pi
  uptake, Blood: 0.38 ± 0.06 % IA/g
  uptake, Body: 4 ± 2 %IA/sample
  uptake, Bone: 0.27 ± 0.04 % IA/g
  uptake, Brain: 0.03 ± 0.01 % IA/g
  uptake, Caecum: 16 ± 4 %IA/sample
  uptake, Heart: 0.12 ± 0.01 % IA/g
  uptake, Kidneys: 1.5 ± 0.3 % IA/g
  uptake, Large intestine: 3.3 ± 3.5 %IA/sample
  uptake, Liver: 2.5 ± 0.4 % IA/g
  uptake, Lung: 0.44 ± 0.07 % IA/g
  uptake, Muscle: 0.061 ± 0.006 % IA/g
  uptake, Pancreas: 3.2 ± 0.7 % IA/g
  uptake, Small intestine: 9 ± 3 %IA/sample
  uptake, Spleen: 2 ± 1 % IA/g
  uptake, Stomach: 5 ± 1 %IA/sample
  uptake, Upper large intestine: 5.2 ± 5.1 %IA/sample
[1]; 6 h pi
  uptake, Blood: 0.30 ± 0.07 % IA/g
  uptake, Body: 2.8 ± 0.2 %IA/sample
  uptake, Bone: 0.18 ± 0.03 % IA/g
  uptake, Brain: 0.03 ± 0.01 % IA/g
  uptake, Caecum: 18 ± 3 %IA/sample
  uptake, Heart: 0.17 ± 0.08 % IA/g
  uptake, Kidneys: 1.3 ± 0.3 % IA/g
  uptake, Large intestine: 30 ± 13 %IA/sample
  uptake, Liver: 1.1 ± 0.3 % IA/g
  uptake, Lung: 0.3 ± 0.1 % IA/g
  uptake, Muscle: 0.05 ± 0.03 % IA/g
  uptake, Small intestine: 2.5 ±0.8 %IA/sample
  uptake, Spleen: 0.6 ± 0.5 % IA/g
  uptake, Stomach: 3.2 ±0.4 %IA/sample
  uptake, Upper large intestine: 14 ± 1 %IA/sample
[1]; 24 h pi
  uptake, Blood: 0.030 ± 0.006 % IA/g
  uptake, Body: 0.27 ± 0.05 %IA/sample
  uptake, Bone: 0.04 ± 0.02 % IA/g
  uptake, Brain: 0.006 ± 0.004 % IA/g
  uptake, Caecum: 0.3 ± 0.2 %IA/sample
  uptake, Heart: 0.021 ± 0.003 % IA/g
  uptake, Kidneys: 0.46 ± 0.08 % IA/g
  uptake, Large intestine: 0.05 ± 0.03 %IA/sample
  uptake, Liver: 0.39 ± 0.05 % IA/g
  uptake, Lung: 0.09 ± 0.04 % IA/g
  uptake, Muscle: 0.006 ± 0.003 % IA/g
  uptake, Pancreas: 0.10 ± 0.02 % IA/g
  uptake, Small intestine: 0.10 ± 0.05 %IA/sample
  uptake, Spleen: 0.37 ± 0.09 % IA/g
  uptake, Stomach: 0.2 ± 0.1 %IA/sample
  uptake, Upper large intestine: 0.05 ± 0.01 %IA/sample
[2]; 3 h pi
  uptake, Blood: 0.09 ± 0.04 % IA/g
  uptake, Bone: 0.04 ± 0.02 % IA/g
  uptake, GI (gastrointestinal tract with content): 56 ± 3 % IA
  uptake, Intestine: 3 ± 1 % IA/g
  uptake, Kidneys: 0.7 ± 0.4 % IA/g
  uptake, Liver: 3 ± 1 % IA/g
  uptake, Lung: 0.12 ± 0.03 % IA/g
  uptake, Muscle: 0.04 ± 0.02 % IA/g
  uptake, Pancreas: 6.1 ± 0.8 % IA/g
  uptake, Spleen: 0.12 ± 0.04 % IA/g
  uptake, Stomach: 1.4 ± 0.3 % IA/g
  uptake, Tumor: 7 ± 2 % IA/g
  Tumor-to-non-tumor ratio, Blood: 97 ± 56
  Tumor-to-non-tumor ratio, Bone: 177 ± 79
  Tumor-to-non-tumor ratio, Intestine: 3 ± 1
  Tumor-to-non-tumor ratio, Kidneys: 14 ± 9
  Tumor-to-non-tumor ratio, Liver: 3 ± 2
  Tumor-to-non-tumor ratio, Lung: 65 ± 20
  Tumor-to-non-tumor ratio, Muscle: 188 ± 32
  Tumor-to-non-tumor ratio, Pancreas: 1.2 ± 0.4
  Tumor-to-non-tumor ratio, Spleen: 62 ± 14
  Tumor-to-non-tumor ratio, Stomach: 5 ± 2
[2]; 6 h pi
  uptake, Blood: 0.056 ± 0.009 % IA/g
  uptake, Bone: 0.02 ± 0.02 % IA/g
  uptake, GI (gastrointestinal tract with content): 26 ± 6 % IA
  uptake, Intestine: 0.4 ± 0.2 % IA/g
  uptake, Kidneys: 0.59 ± 0.06 % IA/g
  uptake, Liver: 0.68 ± 0.08 % IA/g
  uptake, Lung: 0.20 ± 0.10 % IA/g
  uptake, Muscle: 0.012 ± 0.004 % IA/g
  uptake, Pancreas: 0.98 ± 0.08 % IA/g
  uptake, Spleen: 0.06 ± 0.01 % IA/g
  uptake, Stomach: 0.9 ± 0.2 % IA/g
  uptake, Tumor: 3 ± 1 % IA/g
  Tumor-to-non-tumor ratio, Blood: 57 ± 22
  Tumor-to-non-tumor ratio, Bone: 287 ± 232
  Tumor-to-non-tumor ratio, Intestine: 9 ± 4
  Tumor-to-non-tumor ratio, Kidneys: 5 ± 2
  Tumor-to-non-tumor ratio, Liver: 5 ± 2
  Tumor-to-non-tumor ratio, Lung: 18 ± 8
  Tumor-to-non-tumor ratio, Muscle: 270 ± 67
  Tumor-to-non-tumor ratio, Pancreas: 3 ± 1
  Tumor-to-non-tumor ratio, Spleen: 50 ± 16
  Tumor-to-non-tumor ratio, Stomach: 3 ± 1
[3]
  intact radiolabeled peptide in urine and gastrointestinal (caecum) content: no intact radiolabeled peptide
[4]
  logD: -0.6
